Data taken from ChEMBL document CHEMBL3046936, “In vitro inhibition studies of phytoene desaturase by bleaching ketomorpholine derivatives” (J Agric Food Chem, 2001).
The source made the active and inactive calls. The calls are words filed in the database; no cut-off is given here.

Experiments:
[1] = test system: Senna obtusifolia; assay: Preemergence herbicidal activity against Senna obtusifolia (sicklepod) after 20 days; format: functional
[2] = test system: Chenopodium album; assay: Pre-emergence herbicidal activity against Chenopodium album after 20 days; format: functional
[3] = test system: Amaranthus retroflexus; assay: Pre-emergence herbicidal activity against Amaranthus retroflexus after 20 days; format: functional
[4] = test system: Abutilon theophrasti; assay: Preemergence herbicidal activity against Abutilon theophrasti (velvetleaf) after 20 days; format: functional
[5] = test system: Xanthium strumarium; assay: Pre-emergence herbicidal activity against Xanthium strumarium (cocklebur) after 20 days; format: functional
[6] = test system: Ipomoea hederacea; assay: Pre-emergence herbicidal activity against Ipomoea hederacea (ivy-leaved morning glory) after 20 days; format: functional
[7] = test system: Galium aparine; assay: Pre-emergence herbicidal activity against Galium aparine after 20 days; format: functional
[8] = molecular target: 15-cis-phytoene desaturase (Synechococcus elongatus (strain PCC 7942) (Anacystis nidulans R2), UniProt P26294); assay: Inhibition of Synechococcus PCC 7942 phytoene desaturase expressed in Escherichia coli JM 101 by HPLC analysis; details: read-out: I50
[9] = Ratio of ED50 for Xanthium strumarium to ED50 for Chenopodium album; format: functional
[10] = Ratio of ED50 for Xanthium strumarium to ED50 for Galium aparine; format: functional
[11] = Ratio of ED50 for Xanthium strumarium to ED50 for Cassia obtusifolia; format: functional
[12] = molecular target: 15-cis-phytoene desaturase (Synechococcus elongatus (strain PCC 7942) (Anacystis nidulans R2)) (UniProt P26294); assay: Non-competitive inhibition of Synechococcus PCC 7942 phytoene desaturase expressed in Escherichia coli JM 101 by Lineweaver-Burk plot analysis
[13] = molecular target: 15-cis-phytoene desaturase (Synechococcus elongatus (strain PCC 7942) (Anacystis nidulans R2)) (UniProt P26294); assay: Inhibition of Synechococcus PCC 7942 phytoene desaturase expressed in Escherichia coli JM 101 assessed as decrease in zeta-carotene content by HPLC analysis

15-cis-phytoene desaturase, sequence (P26294 whole entry): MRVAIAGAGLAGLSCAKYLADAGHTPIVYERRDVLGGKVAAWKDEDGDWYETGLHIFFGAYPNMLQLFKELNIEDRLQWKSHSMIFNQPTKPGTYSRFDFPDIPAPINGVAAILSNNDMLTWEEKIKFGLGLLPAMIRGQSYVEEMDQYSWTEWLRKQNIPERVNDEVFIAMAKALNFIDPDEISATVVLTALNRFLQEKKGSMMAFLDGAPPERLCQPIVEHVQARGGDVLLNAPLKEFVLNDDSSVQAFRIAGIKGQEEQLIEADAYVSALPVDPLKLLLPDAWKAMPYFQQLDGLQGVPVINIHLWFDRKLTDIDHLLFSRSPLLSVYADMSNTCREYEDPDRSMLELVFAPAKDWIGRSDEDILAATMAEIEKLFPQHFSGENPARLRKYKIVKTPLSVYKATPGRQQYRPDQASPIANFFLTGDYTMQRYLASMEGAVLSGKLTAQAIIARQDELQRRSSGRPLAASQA
15-cis-phytoene desaturase (Synechococcus elongatus (strain PCC 7942) (Anacystis nidulans R2)), sequence (P26294 whole entry): as above

O=C1NCCOC1Sc1cccc(C(F)(F)F)c1 (racemic)
ED50 [1]: 2500 g/ha
ED50 [2]: 850 g/ha
ED50 [3]: 780 g/ha
ED50 [4]: 1000 g/ha
ED50 [5]: >10000 g/ha
ED50 [6]: 4800 g/ha
ED50 [7]: 4800 g/ha
IC50 [8]: 8.5 µM

CN1CCOC(Cc2cccc(C(F)(F)F)c2)C1=O (racemic)
ED50 [1]: 500 g/ha
ED50 [2]: 450 g/ha
ED50 [3]: 1250 g/ha
ED50 [4]: 1400 g/ha
ED50 [5]: 8900 g/ha
ED50 [6]: 500 g/ha
ED50 [7]: 500 g/ha
Ratio ED50 [9]: 15
Ratio ED50 [10]: 15
Ratio ED50 [11]: 15
IC50 [8]: > 100 µM

C[C@H]1CO[C@H](Cc2cccc(C(F)(F)F)c2)C(=O)N1
ED50 [1]: 200 g/ha
ED50 [2]: 25 g/ha
ED50 [3]: 50 g/ha
ED50 [4]: 50 g/ha
inhibition [12]: Active
inhibition [13]: Active
ED50 [5]: 340 g/ha
ED50 [6]: 130 g/ha
ED50 [7]: 130 g/ha
IC50 [8]: 0.17 µM

C[C@H]1CO[C@@H](Cc2cccc(C(F)(F)F)c2)C(=O)N1
ED50 [1]: 1550 g/ha
ED50 [2]: 500 g/ha
ED50 [3]: 600 g/ha
ED50 [4]: 500 g/ha
ED50 [5]: 2300 g/ha
ED50 [6]: 1500 g/ha
ED50 [7]: 1500 g/ha
IC50 [8]: 3.8 µM

O=C1NCCOC1Cc1cccc(C(F)(F)F)c1 (racemic)
ED50 [1]: 350 g/ha
ED50 [2]: 140 g/ha
ED50 [3]: 80 g/ha
ED50 [4]: 150 g/ha
ED50 [5]: 800 g/ha
ED50 [6]: 380 g/ha
ED50 [7]: 380 g/ha
IC50 [8]: 6.5 µM

CN1CCOC(c2cccc(C(F)(F)F)c2)C1=O (racemic)
ED50 [1]: >10000 g/ha
ED50 [2]: 10000 g/ha
ED50 [3]: >10000 g/ha
ED50 [4]: 5500 g/ha
ED50 [5]: 9500 g/ha
ED50 [6]: >10000 g/ha
ED50 [7]: >10000 g/ha
IC50 [8]: > 100 µM

O=C1NCCOC1SCc1cccc(C(F)(F)F)c1 (racemic)
ED50 [1]: >10000 g/ha
ED50 [2]: >10000 g/ha
ED50 [3]: >10000 g/ha
ED50 [4]: >10000 g/ha
ED50 [5]: >10000 g/ha
ED50 [6]: >10000 g/ha
ED50 [7]: >10000 g/ha
IC50 [8]: 3.2 µM

C[C@@H]1CO[C@@H](Cc2cccc(C(F)(F)F)c2)C(=O)N1
ED50 [1]: >10000 g/ha
ED50 [2]: >10000 g/ha
ED50 [3]: >10000 g/ha
ED50 [5]: >10000 g/ha
ED50 [6]: 4000 g/ha
ED50 [7]: 4000 g/ha
IC50 [8]: 19 µM
